Test results taken from patent US20110118350A1, “COMPOSITION FOR PREVENTING CARDIOVASCULAR EVENT IN HIGH-RISK PATIENT” (MOCHIDA PHARMACEUTICAL CO., LTD., priority 2008, published 2011).

Assay: Plasma OA/SA ratio in DELIS trial patients (fatty acid composition of plasma)
Format: in vivo, human
Details: for OA/SA ratio in plasma, Average: statin base drug
Description: The ratio of oleic acid (OA) to stearic acid (SA) in plasma can be calculated by collecting blood from a patient and measuring the levels of the individual fatty acids such as OA and SA or the ratio of the individual fatty acids in the total fatty acids by, for example, gas chromatography. The OA/SA ratio can be also calculated from the individual fatty acid levels obtained by performing a clinical test item, that is, fractionation of fatty acids in total lipids which can be performed by, for example, SRL, Inc. The measurement method and calculation method are not particularly limited. The fatty acid fractionation into 24 fractions is a testing method which involves fractionating fatty acids including unsaturated fatty acids into specific 24 fractions and quantitatively determining the fractions by gas chromatography. More specifically, the plasma fatty acids are extracted by the method of, for example, Folch et al. (Folch J. et al., J. Biol. Chem. 226, 497-509 (1957)). It is possible to use tricosanoic acid (C23:0) as an internal standard, to convert each fatty acid into a methyl ester by addition of boron trifluoride and methanol, and to quantitatively determine the methyl ester of each fatty acid by measurement using a gas chromatograph such as SHIMAZU GC-17A (Shimadzu Corporation) and a capillary column such as BPX70 (with an internal diameter of 0.25 mm and a length of 30 m; SGE International Ltd.). However, this is not the sole method of the invention. This trial corresponds to a partial analysis of the results obtained in DELIS (Japan EPA Lipid Intervention Study) which is a large scale clinical trial of high purity EPA preparation which was presented in the American College of Cardiology 2005 Annual Meeting (for general information on DELIS, see Lancet, vol. 369, pp. 1090-1098 (2007)). […]

In the case of `CC/C=C\C/C=C\C/C=C\C/C=C\C/C=C\CCCC(=O)OCC` [EPA-E, ethyl icosapentate], the “change of OA/SA ratio in plasma” value (after the administration of EPA-E) is reported as “significant decrease”, the “OA/SA ratio in plasma, Average” value (before start of trial) is reported as 2.96 and the “OA/SA ratio in plasma, Average” value (during whole observation period, Epadel 600 mg 3 times a day oral) is reported as 2.78.
